In US12121525B2, “Methods for treating GI syndrome and graft versus host disease” (Sloan Kettering Institute for Cancer Research, priority 2007, dated 2024):

What was measured:
C57BL/6 splenocytes = assay: MLR-primed CTL-induced splenocyte lysis (51Cr release); type: cell-based, mouse; details: 500 nM
Method: To show the generic role of target cell ASMase in T cell-induced lysis, we used two standardized assays for T cell function; MLR-primed CTL-induced splenocyte lysis (FIG. 17) and in vitro activation-induced cell death (AICD) of T cells (FIG. 18). The role of target cell ASMase was assessed in an in vitro activated MLR, in which C57BL/6 splenocyte target cells of asmase^+/+ or asmase^−/− genotype were stimulated for 48 hrs with mitogen, washed and chromium labeled. These cells were then coincubated with effector Balb/c splenocytes activated for 5 days by culture with irradiated C57BL/6 splenocytes. Chromium release was quantified and the % lysis was calculated. […] Washed splenocytes cells were coincubated with increasing ratios of activated effector Balb/c T cells, and ^51Cr release was quantified 6 hour thereafter. […]
To evaluate a potential generic role for target cell ASMase in platform generation in T cell-induced lysis, we tested two standardized assays for T cell-mediated cytolysis, MLR-primed CTL-induced splenocyte lysis, and in vitro AICD of T cells. […] Furthermore, MLR-primed CTLs induced 43.2±6.5% asmase^+/+ splenocyte lysis at an effector:target ratio of 50:1 (FIG. 19B), attenuated to 7.3±2.5% lysis in asmase^−/− target cells, as quantified by ^51Cr-release assay. […]

splenic T cells = assay: Platform generation in T cells after AICD induction; details: 500 nM; not shown
C57BL/6 hepatocytes = type: cell-based; details: 200 nM, CTL-treated asmase−/− hepatocytes
Method: Whereas Fas-mediated apoptotic death receptor activation requires generation of ceramide-rich platforms in some cell systems, CTL-induced platform generation was assessed in asmase^+/+ and asmase^−/− hepatocytes in the ex vivo model of GvHD. Alloactivated T cells induced rapid generation of ceramide-rich platforms on the surface of the target hepatocytes 10 min following co-incubation (FIG. 16C). Platform generation increased within one minute, peaked at 10 min, and persisted for over 60 min (FIG. 16D). Fas, required for apoptosis in this system, concentrated within the ceramide-rich platform as determined by confocal microscopy.
Platforms were detected as previously described. […]; Sigma-Aldrich) for 45 min at 4° C., washed twice in PBS containing 0.1% Triton X-100 and mounted in fluorescent mounting medium (Dako, Carpenteria CA). Fluorescence was detected using an Axiovert S-100 Zeiss fluorescence microscope equipped with a SPOT digital camera. The percentage of cells containing platforms, i.e. those in which the fluorescence condenses onto less than 15% of the cell surface, was determined by counting 150-250 cells per point. Alternately, platforms were identified using a mouse monoclonal anti-ceramide antibody MID 15B4 IgM (1:50 dilution, Alexis Biochemicals), mouse monoclonal anti-Fas CH-11 IgM (1:500 dilution, Upstate Biotechnology) or polyclonal rabbit anti-ASMase antibody 1598 (1:100 dilution) and detected using Cy3-conjugated anti-mouse or anti-rabbit IgM (1:500 dilution, Roche Molecular Biochemicals), respectively. Rabbit polyclonal anti-CD46 (1:1000 dilution, Santa Cruz Biotechnology, Santa Cruz CA) was used as a negative control. In some studies, confocal images were obtained using a Leica TCS SPZ upright confocal microscope. Alternatively, 0.5×10^6hepatocytes were stimulated for the indicated times with CTLs and platform formation was assessed as described.

CCCCCCCCCCCCC/C=C/[C@@H](O)[C@H](CO)NC(=O)CCCCCCCCCCCCCCC [C16-ceramide]
CTL-induced lysis of asmase−/− target splenocytes (C57BL/6 splenocytes): restored | platform generation in asmase−/− T cells stimulated to undergo AICD (splenic T cells): completely restored | platform formation, % of cells (C57BL/6 hepatocytes): 46.3±1.3%
